Experimental data as given in patent US12637468B2, “Substituted [1,2,4]triazolo[4,3-b]pyridazines as GABAA receptor modulators” (SHANGHAI SIMR BIOTECHNOLOGY CO., LTD., priority 2019, dated 2026).
≈ marks a conversion by molar mass, not a printed value.

How the values were obtained:
[1] = biological target: T1, α5-GABAA receptor (Homo sapiens, UniProt P18507+P31644); test: Cell-level screening: whole cell patch clamp, inverse agonist efficacy on α5-GABAA receptor expressed in HEK293; format: cell-based; conditions: drug 100 nM, GABA 0.05 μM, HEK293 expressing α5, β3 and γ2 subunits, clamped at −60 mV; read-out: Compound inverse agonist efficacy %
T1 construct: expressed in transfected cells; host or cells: HEK293, monoclonal stably transfected line
How it was run: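 Whole-cell patch clamp at −60 mV on HEK293 stably expressing α5β3γ2, pH 7.4 extracellular/CsCl internal solutions. Current evoked by 0.05 μM GABA, then compound in GABA solution; screening at 100 nM, dose-response 0.3–300 nM. Inverse agonist efficacy as % change of GABA current.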

[2] = Thermodynamic solubility in simulated intestinal fluid (TS in FaSSIF); format: physicochemical; conditions: thermodynamic from solid, 37° C.
Method: Simulated intestinal fluid FaSSIF: 54.76 mg of FaSSIF-V2 (Biorelevant, batch. V2FAS-0619-A, lot. V2FAS01) was weighed and added to 15 mL of a buffer solution. After dissolving, the solution was supplemented to 30 mL, and put at room temperature for 1 hour before use.
Waters e2695 HPLC high performance liquid chromatography, Mettler XSE105 analytical balance.
Firstly, a 10 mM stock solution was prepared with DMSO, and was diluted with a diluent (ACN: PB buffer 50:50) into 1 μM-200 μM as a standard solution.
Thermodynamic solubility in intestinal fluid (TS in FaSSIF) was simulated. About 0.3 mg of each sample was weighed and added to 1.5 mL of FaSSIF solution, with two parts in parallel, shaken at 1000 rpm at 37° C. for 4 hours, filtered. 1 mL of an initial filtrate was discarded, and 400 μL of the subsequent filtrate was taken. The filtrate was detected by high performance liquid chromatograph (UV).

T1 sequence (P31644 32-462): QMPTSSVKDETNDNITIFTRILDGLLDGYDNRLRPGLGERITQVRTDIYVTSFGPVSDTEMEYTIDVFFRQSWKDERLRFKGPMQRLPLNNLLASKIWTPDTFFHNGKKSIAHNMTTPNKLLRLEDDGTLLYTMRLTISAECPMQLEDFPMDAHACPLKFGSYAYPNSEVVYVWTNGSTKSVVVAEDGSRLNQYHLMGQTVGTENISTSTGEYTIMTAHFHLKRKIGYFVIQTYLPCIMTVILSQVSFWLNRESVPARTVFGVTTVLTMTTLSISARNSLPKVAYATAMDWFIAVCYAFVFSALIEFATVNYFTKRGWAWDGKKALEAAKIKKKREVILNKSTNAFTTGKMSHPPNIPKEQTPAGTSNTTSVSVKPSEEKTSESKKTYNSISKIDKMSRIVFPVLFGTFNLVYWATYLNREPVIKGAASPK
T1 sequence (P28472 26-473 partner): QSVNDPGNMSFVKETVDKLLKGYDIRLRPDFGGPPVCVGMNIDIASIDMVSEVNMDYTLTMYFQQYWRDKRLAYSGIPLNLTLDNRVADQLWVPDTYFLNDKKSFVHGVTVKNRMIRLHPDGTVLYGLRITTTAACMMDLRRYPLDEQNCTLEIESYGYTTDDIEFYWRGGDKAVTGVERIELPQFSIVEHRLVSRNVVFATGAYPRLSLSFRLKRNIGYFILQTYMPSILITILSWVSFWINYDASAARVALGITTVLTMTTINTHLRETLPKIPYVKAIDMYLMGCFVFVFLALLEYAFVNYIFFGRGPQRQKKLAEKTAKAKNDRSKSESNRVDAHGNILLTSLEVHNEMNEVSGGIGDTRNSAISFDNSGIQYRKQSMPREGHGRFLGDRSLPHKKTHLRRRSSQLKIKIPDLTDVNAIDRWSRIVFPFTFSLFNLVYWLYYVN
T1 sequence (P18507 40-467 isoform P18507-1 limits assumed): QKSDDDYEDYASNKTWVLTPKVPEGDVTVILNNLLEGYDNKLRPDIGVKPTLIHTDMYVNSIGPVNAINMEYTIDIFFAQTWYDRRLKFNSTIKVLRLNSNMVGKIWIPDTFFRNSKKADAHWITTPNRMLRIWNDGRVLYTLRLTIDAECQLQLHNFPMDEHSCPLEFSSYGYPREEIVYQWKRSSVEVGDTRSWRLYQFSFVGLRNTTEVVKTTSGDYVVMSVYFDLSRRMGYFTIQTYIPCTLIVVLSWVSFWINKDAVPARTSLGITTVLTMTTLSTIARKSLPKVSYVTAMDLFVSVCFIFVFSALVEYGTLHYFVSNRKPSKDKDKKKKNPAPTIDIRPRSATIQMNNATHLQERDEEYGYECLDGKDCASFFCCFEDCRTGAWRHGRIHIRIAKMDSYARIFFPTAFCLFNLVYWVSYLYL

| inhibition at 0.1 µM [1] [%] | solubility thermodynamic at 4 h [2] [µg/mL] | SMILES |
| --- | --- | --- |
| 37.2 | 143 (≈ 386 µM) | COc1cnnc(COc2nn3c(-c4cc(C)on4)nnc3cc2OC)c1 [Embodiment 49] |
| 38.8 | 83 (≈ 217 µM) | COCc1cccc(COc2nn3c(-c4cc(C)on4)nnc3cc2OC)n1 [Embodiment 50] |
| 25.1 | 38 (≈ 89.1 µM) | COCCCOc1ccnc(COc2nn3c(-c4cc(C)on4)nnc3cc2OC)c1 [Embodiment 55] |
| 44.3 | 52.4 (≈ 127 µM) | COCCn1cccc(COc2nn3c(-c4cc(C)on4)nnc3cc2OC)c1=O [Embodiment 75] |
| 43.4 | 255 (≈ 648 µM) | COc1cc2nnc(-c3cc(C)on3)n2nc1OCc1ccc2c(n1)CCNC2 [Embodiment 78] |
| 47.2 | 195 (≈ 432 µM) | COCCN1CCc2nc(COc3nn4c(-c5cc(C)on5)nnc4cc3OC)ccc2C1 [Embodiment 80] |
| 33.7 | 222 (≈ 508 µM) | COCCN1Cc2ccc(COc3nn4c(-c5cc(C)on5)nnc4cc3OC)nc2C1 [Embodiment 99] |
| 47.3 | 30.8 (≈ 73.1 µM) | COc1cc2nnc(-c3cc(C)on3)n2nc1OCc1ccc2c(n1)CN(C(C)C)C2 [Embodiment 102] |
| 39.3 | 212 (≈ 443 µM) | COCCCN1CCc2nc(COc3nn4c(-c5cc(C)on5)nnc4cc3OC)ccc2C1=O [Embodiment 107] |
| 47.3 | 54 (≈ 124 µM) | CCN1CCc2nc(COc3nn4c(-c5cc(C)on5)nnc4cc3OC)ccc2C1=O [Embodiment 109] |
| 36 | 139 (≈ 284 µM) | COc1cc2nnc(-c3cc(C)on3)n2nc1OCc1ccc2c(n1)CCN(C1(CC#N)COC1)C2 [Embodiment 114, 2-(3-(2-(((7-Methoxy-3-(5-methylisoxazol-3-yl)-[1,2,4]triazolo[4,3-b]pyridazin-6-yl)oxy)methyl)-7,8-dihydro-1,6-naphthyridin-6(5H)-yl)oxetan-3-yl)acetonitrile] |
| 32.9 | 137 (≈ 315 µM) | COc1cc2nnc(-c3cc(C)on3)n2nc1OCc1ccc2c(n1)CCN(C(C)=O)C2 [Embodiment 115] |
| 43.9 | 365 (≈ 859 µM) | COc1cc2nnc(-c3cc(C)on3)n2nc1OCc1ccc(C2(F)CN(C)C2)cn1 [Embodiment 124] |
| 38.3 | 203 (≈ 481 µM) | COc1cc2nnc(-c3cc(C)on3)n2nc1OCc1cccc(C2CCNCC2)n1 [Embodiment 126] |
| 41.8 | 223 (≈ 508 µM) | CCN1CC(F)(c2ccc(COc3nn4c(-c5cc(C)on5)nnc4cc3OC)nc2)C1 [Embodiment 127] |
| 39.5 | 35.4 (≈ 93.8 µM) | COc1cc2nnc(-c3cc(C)on3)n2nc1OCc1cccc2nccn12 [Embodiment 135] |
| 40.6 | 63.9 (≈ 138 µM) | COc1cc2nnc(-c3cc(C)on3)n2nc1OCc1ccc2c(n1)CCN(C1COC1)C2=O [Embodiment 141] |
| 46.2 | 263 (≈ 598 µM) | COc1cc2nnc(-c3cc(C)on3)n2nc1OCc1ccc(OCC2(C)COC2)nn1 [Embodiment 150] |
| 40.5 | 73.8 (≈ 167 µM) | COCCCOc1cc(C)c(COc2nn3c(-c4cc(C)on4)nnc3cc2OC)nn1 [Embodiment 156] |
| 45.2 | 179 (≈ 373 µM) | COc1cc2nnc(-c3cc(C)on3)n2nc1OCc1ccc(OCCN2CCN(C)CC2)nn1 [Embodiment 163] |
| 42.5 | 408 (≈ 907 µM) | CCN1CCC(c2cccc(COc3nn4c(-c5cc(C)on5)nnc4cc3OC)n2)CC1 [Embodiment 167] |
| 37.5 | 59.9 (≈ 136 µM) | CCOCCCOc1ccc(COc2nn3c(-c4cc(C)on4)nnc3cc2OC)nn1 [Embodiment 168] |
| 58.8 | 32.8 (≈ 74.8 µM) | COc1cc2nnc(-c3cc(C)on3)n2nc1OCc1ccc(OCC2CCOC2)cn1 (centres unmarked) [Embodiment 173] |
| 43.5 | 35.4 (≈ 80.8 µM) | COc1cc2nnc(-c3cc(C)on3)n2nc1OCc1ccc(OC2CCOCC2)cn1 [Embodiment 174] |
| 55.9 | 204 (≈ 395 µM) | COc1cc2nnc(-c3cc(C)on3)n2nc1OCc1ccc2c(n1)CCN(C1CN(C(=O)C3CC3)C1)C2 [Embodiment 198] |
| 37.4 | 228 (≈ 479 µM) | COc1cc2nnc(-c3cc(C)on3)n2nc1OCc1ccc2c(n1)CCN(CC1(C)COC1)C2 [Embodiment 200] |
| 57.4 | 32.6 (≈ 64.3 µM) | COc1cc2nnc(-c3cc(C)on3)n2nc1OCc1ccc2c(n1)CCN(C(=O)N1CCOCC1)C2 [Embodiment 202] |

Continued, molecule first:

| SMILES | inhibition at 0.1 µM [1] [%] | solubility thermodynamic at 4 h [2] [µg/mL] |
| --- | --- | --- |
| COc1ccc(COc2nn3c(-c4cc(CO)on4)nnc3cc2OC)nc1 [Embodiment 47, (3-(7-Methoxy-6-((5-methoxypyridin-2-yl)methoxy)-[1,2,4]triazolo[4,3-b]pyridazine-3-yl)isoxazol-5-yl)methanol] | 45.2 | 40.4 (≈ 105 µM) |
| COCCN1Cc2nc(COc3nn4c(-c5cc(C)on5)nnc4cc3OC)ccc2C1=O [Embodiment 66] | 62 | 146 (≈ 323 µM) |
| CCN1Cc2ccc(COc3nn4c(-c5cc(C)on5)nnc4cc3OC)nc2C1 [Embodiment 68] | 51.3 | 146 (≈ 358 µM) |
| COCCOc1cnc(COc2nn3c(-c4cc(C)on4)nnc3cc2OC)cn1 [Embodiment 85] | 57.3 | 53.9 (≈ 130 µM) |
| COc1cc2nnc(-c3cc(C)on3)n2nc1OCc1ccc2c(n1)CCN(Cc1ncccn1)C2=O [Embodiment 88, 2-(((7-Methoxy-3-(5-methylisoxazol-3-yl)-[1,2,4]triazolo[4,3-b]pyridazin-6-yl)oxy)methyl)-6-(pyrimidin-2-ylmethyl)-7,8-dihydro-1,6-naphthyridin-5(6H)-one] | 32.5 | 60.3 (≈ 121 µM) |
| COc1cc2nnc(-c3cc(C)on3)n2nc1OCc1ccc2c(n1)CCN(CCC#N)C2 [Embodiment 90] | 64.9 | 84.9 (≈ 190 µM) |
| CCN1Cc2ccc(COc3nn4c(-c5cc(C)on5)nnc4cc3OC)nc2C1=O [Embodiment 100] | 35.3 | 70 (≈ 166 µM) |
| COc1cc2nnc(-c3cc(C)on3)n2nc1OCc1cccc(C2CCCNC2)n1 (centres unmarked) [Embodiment 103] | 43.9 | 322 (≈ 764 µM) |
| COCCN1CCc2nc(COc3nn4c(-c5cc(C)on5)nnc4cc3OC)ccc2C1=O [Embodiment 110] | 58.6 | 46.6 (≈ 100 µM) |
| COCCCC(=O)N1CCc2nc(COc3nn4c(-c5cc(C)on5)nnc4cc3OC)ccc2C1 [Embodiment 112] | 52.4 | 318 (≈ 644 µM) |
| COc1cc2nnc(-c3cc(C)on3)n2nc1OCc1ccc2c(n1)CCN(CCS(C)(=O)=O)C2 [Embodiment 113, 3-(7-Methoxy-6-((6-(2-(methylsulfonyl)ethyl)-5,6,7,8-tetrahydro-1,6-naphthalen-2-yl)methoxy)-[1,2,4]triazolo[4,3-b]pyridazin-3-yl)-5-methylisoxazole] | 36.7 | 191 (≈ 383 µM) |
| COc1cc2nnc(-c3cc(C)on3)n2nc1OCc1cccc(C2CCCN(C3COC3)C2)n1 (centres unmarked) [Embodiment 122] | 31.9 | 48.4 (≈ 101 µM) |
| COCCn1ccc2nc(COc3nn4c(-c5noc(C)n5)nnc4cc3OC)ccc2c1=O [Embodiment 130] | 39.9 | 30.9 (≈ 66.5 µM) |
| COc1cc2nnc(-c3cc(C)on3)n2nc1OCc1cnnn1C [Embodiment 158] | 53.1 | 38.2 (≈ 112 µM) |
| COc1cc2nnc(-c3cc(C)on3)n2nc1OCc1ccc(OCC2CCOC2)nn1 (centres unmarked) [Embodiment 162] | 36.6 | 237 (≈ 538 µM) |
| COc1cc2nnc(-c3cc(C)on3)n2nc1OCc1ccc(OCCN2CCOCC2)nn1 [Embodiment 164] | 33.9 | 309 (≈ 660 µM) |
| COc1cc2nnc(-c3cc(C)on3)n2nc1OCc1ccc(CN2CCC2)cn1 [Embodiment 169] | 40.7 | 306 (≈ 752 µM) |
| COc1cc2nnc(-c3cc(C)on3)n2nc1OCc1ccc(OCC2(C)COC2)cn1 [Embodiment 170] | 32.9 | 66.1 (≈ 151 µM) |
| COc1cc2nnc(-c3cc(C)on3)n2nc1OCc1ccc(OC2CC3(COC3)C2)nn1 [Embodiment 179] | 39 | 44.9 (≈ 99.5 µM) |
| COc1cc2nnc(-c3cc(C)on3)n2nc1OCc1cc(OC2COC2)cnn1 [Embodiment 180] | 65.4 | 146 (≈ 356 µM) |
| COc1cc2nnc(-c3cc(C)on3)n2nc1OCc1ccc2c(n1)CCN(CC(=O)N1CCCC1)C2 [Embodiment 189] | 52.4 | 75.8 (≈ 150 µM) |
| COc1cc2nnc(-c3cc(C)on3)n2nc1OCc1ccc2c(n1)CCN(CC(=O)N(C)C)C2 [Embodiment 193] | 32.6 | 200 (≈ 418 µM) |
